From patent US4661602A, “Substituted alkyl imidazole derivatives” (G. D. Searle & Co., priority 1985, dated 1987)
≈ marks a conversion by molar mass, not a printed value. Counter-ions that a name gives are not always drawn.

Assays:
B. Fragilis NCTC 10581 = assay: Anti-anaerobic activity, strain A (microtitre plate MIC/MBC); type: cell-based, Bacteroides fragilis; details: Bacteroides fragilis, NCTC10581, 48 h, strain A; for MIC: 48 hours, 37° C., anaerobic chamber, lowest concentration with no detectable growth, read-out: MIC; for MBC: less than 5 colonies (99.9% reduction in viable count) after 48 hours, read-out: MBC
B. Fragilis NCTC 9343 = assay: Anti-anaerobic activity, strain B (microtitre plate MIC/MBC); type: cell-based, Bacteroides fragilis; details: Bacteroides fragilis, NCTC9343, 48 h, strain B; for MIC: 48 hours, 37° C., anaerobic chamber, lowest concentration with no detectable growth, read-out: MIC; for MBC: less than 5 colonies (99.9% reduction in viable count) after 48 hours, read-out: MBC
B. Fragilis NCTC 9344 = assay: Anti-anaerobic activity, strain C (microtitre plate MIC/MBC); type: cell-based; details: Bacteroides fragilis, NCTC9344, 48 h, strain C; for MIC: 48 hours, 37° C., anaerobic chamber, lowest concentration with no detectable growth, read-out: MIC; for MBC: less than 5 colonies (99.9% reduction in viable count) after 48 hours, read-out: MBC
B. Fragilis ATCC 11295 = assay: Anti-anaerobic activity, strain D (microtitre plate MIC/MBC); type: cell-based; details: Bacteroides fragilis, ATCC11295, 48 h, strain D; for MIC: 48 hours, 37° C., anaerobic chamber, lowest concentration with no detectable growth; for MBC: less than 5 colonies (99.9% reduction in viable count) after 48 hours, read-out: MBC
B. Fragilis WS-1 = assay: Anti-anaerobic activity, strain E (microtitre plate MIC/MBC); type: cell-based; details: Bacteroides fragilis, 48 h, strain E; for MIC: 48 hours, 37° C., anaerobic chamber, lowest concentration with no detectable growth, read-out: MIC; for MBC: less than 5 colonies (99.9% reduction in viable count) after 48 hours, read-out: MBC

SMILES	MIC (B. Fragilis NCTC 10581) [µg/mL]	MIC (B. Fragilis NCTC 9343) [µg/mL]	MIC (B. Fragilis NCTC 9344) [µg/mL]	MIC (B. Fragilis ATCC 11295) [µg/mL]	MIC (B. Fragilis WS-1) [µg/mL]	MBC (B. Fragilis NCTC 10581) [µg/mL]	MBC (B. Fragilis NCTC 9343) [µg/mL]	MBC (B. Fragilis NCTC 9344) [µg/mL]	MBC (B. Fragilis ATCC 11295) [µg/mL]	MBC (B. Fragilis WS-1) [µg/mL]
c1ccc(CCCN2CCN=C2C(Cn2ccnc2)c2ccccc2)cc1 (stereo not shown) [Example 18, 4,5-Dihydro-2-[2-(imidazol-1-yl)-1-phenylethyl]-1-(3-phenylpropyl)imidazoledihydrochloride]	25	25	50	25	25					
Clc1ccccc1N1CCN=C1C(Cn1ccnc1)c1ccccc1 (stereo not shown) [Example 1, 1-(2-Chlorophenyl)-4,5-dihydro-2[2-(imidazol-1-yl)-1-phenylethyl]imidazole]		12.5 (≈ 35.6 µM)	6.2 (≈ 17.7 µM)	6.2 (≈ 17.7 µM)	12.5 (≈ 35.6 µM)					
Cc1ccc(N2CCN=C2C(Cn2ccnc2)c2ccccc2)c(C)c1 (stereo not shown) [Example 24, 4,5-Dihydro-1-(2,4-dimethylphenyl)-2-[2-(imidazol-1-yl)-1-phenylethyl]imidazole dihydrochloride]	25	12.5	12.5	12.5	25					
Cc1nccn1CC(C1=NCCN1c1ccc(Cl)cc1Cl)c1ccccc1 (stereo not shown) [Example 21, 1-(2,4-Dichlorophenyl)-4,5-dihydro-2-[2-(2-methylimidazol-1-yl)-1-phenylethyl]imidazole dihydrochloride]	12.5	1.5				12.5	1.5	0.8	0.8	0.8
Clc1ccc(N2CCN=C2C(Cn2cncn2)c2ccccc2)c(Cl)c1 (stereo not shown) [Example 20, 1-(2,4-Dichlorophenyl)-4,5-dihydro-2-[1-phenyl-2-(1,2,4-triazol-1-yl)ethyl]imidazole]	12.5 (≈ 32.4 µM)	25 (≈ 64.7 µM)	25 (≈ 64.7 µM)	25 (≈ 64.7 µM)	25 (≈ 64.7 µM)					
CCCCCCCCN1CCN=C1C(Cn1ccnc1)c1ccccc1 (stereo not shown) [Example 19, 4,5-Dihydro-2-[2-(imidazol-1-yl)-1-phenylethyl]-1-n-octylimidazole dihydrochloride]	12.5		12.5	25	12.5	25	6.2	25	100	12.5
Clc1ccc(CN2CCN=C2C(Cn2cccn2)c2ccccc2)c(Cl)c1 (stereo not shown) [Example 16, 1-(2,4-Dichlorophenylmethyl)-4,5-dihydro-2-[1-phenyl-2-(pyrazol-1-yl)ethyl]imidazole dihydrochloride]					100					
Clc1ccc(CN2CCN=C2C(Cn2cncn2)c2ccccc2)c(Cl)c1 (stereo not shown) [Example 17, 1-(2,4-Dichlorophenylmethyl)-4,5-dihydro-2-[1-phenyl-2-(1,2,4-triazol-1-yl)ethyl]imidazole dihydrochloride]	50		50	50	50					
